# In patent publication US9656990B2, “Cathepsin cysteine protease inhibitors” (Merck Sharp & Dohme Corp., priority 2014, dated 2017):
# Tests used:
# [1] = target: T1, human cathepsin F (Homo sapiens, UniProt Q9UBX1); experiment: Cathepsin F Assay; assay type: biochemical; conditions: IP from dose response curve; Z-Phe-Arg-AMC substrate, pH 5.5; read-out: hCat F (IP (nM))
# T1 sequence (Q9UBX1 271-484): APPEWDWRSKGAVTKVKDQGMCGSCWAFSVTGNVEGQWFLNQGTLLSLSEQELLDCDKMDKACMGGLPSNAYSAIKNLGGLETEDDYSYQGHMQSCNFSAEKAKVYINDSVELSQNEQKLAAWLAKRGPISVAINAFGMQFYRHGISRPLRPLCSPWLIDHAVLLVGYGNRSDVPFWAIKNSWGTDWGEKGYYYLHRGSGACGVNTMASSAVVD
# Method: Serial dilutions (1/3) from 500 μM down to 0.025 μM of test compounds were prepared in dimethyl sulfoxide (DMSO). Then 0.5 μL of DMSO from each dilution were added to 18.75 μL of assay buffer (MES, 50 mM (pH 5.5); EDTA, 2.5 mM; DTT, 2.5 mM and 10% DMSO) containing human cathepsin F (10 nM) in assay buffer solution. The assay solutions were mixed for 5-10 seconds on a shaker plate and incubated for 15 minutes at room temperature. Z-Phe-Arg-AMC (8 μM) in 6.25 μL of assay buffer was added to the assay solutions. Hydrolysis of the coumarin leaving group (AMC) was followed by spectrofluorometry (Exλ=360 nm; Emλ=460 nm) for 20 minutes. Percent of inhibition were calculated by fitting experimental values to standard mathematical model for dose response curve.
# [2] = target: human cathepsin K (UniProt P43236, Y175D/V274L, species not given); experiment: Cathepsin K Assay; assay type: biochemical; conditions: IP from dose response curve; Z-Leu-Arg-AMC substrate, pH 5.5; read-out: hrbCat K (IP (nM))
SMILES,IC50 [1] [nM],IC50 [2] [nM]
"N#CC1(NC(=O)[C@@H]2C[C@@H](F)CC[C@H]2c2nn(-c3ncccc3F)cc2-c2ccc(N3CCS(=O)(=O)CC3)cc2)CC1 [Example 29, (1R,2R,5S)-N-(1-cyanocyclopropyl)-2-(4-(4-(1,1-dioxidothiomorpholino)phen-yl)-1-(3-fluoropyridin-2-yl)-1H-pyrazol-3-yl)-5-fluorocyclohexanecarboxamide]",6780,6.2
"CC(C)(O)c1ccc(-n2cc(-c3ccc(N4CCS(=O)(=O)CC4)cc3)c([C@@H]3CCCC[C@H]3C(=O)NC3(C#N)CC3)n2)cc1 [Example 97, (1R,2R)-N-(1-cyanocyclopropyl)-2-(4-(4-(1,1-dioxidothiomorpholino)phen-yl)-1-(4-(2-hydroxypropan-2-yl)phenyl)-1H-pyrazol-3-yl)cyclohexanecarboxamide]",764,0.8
"COc1ccc(-n2cc(-c3ccc(N4CCS(=O)(=O)CC4)cc3)c([C@@H]3CCCC[C@H]3C(=O)NC3(C#N)CC3)n2)nn1 [Example 162, (1R,2R)-N-(1-cyanocyclopropyl)-2-(4-(4-(1,1-dioxidothiomorpholino)phen-yl)-1-(6-methoxypyridazin-3-yl)-1H-pyrazol-3-yl)cyclohexanecarboxamide]",654,0.84
"Cc1ccc(-n2cc(-c3ccc(N4CCS(=O)(=O)CC4)cc3)c([C@@H]3CCCC[C@H]3C(=O)NC3(C#N)CC3)n2)c(C#N)c1 [Example 107, (1R,2R)-2-(1-(2-cyano-4-methylphenyl)-4-(4-(1,1-dioxidothiomorpholino)phen-yl)-1H-pyrazol-3-yl)-N-(1-cyanocyclopropyl)cyclohex-anecarboxamide]",1400,3
"N#CC1(NC(=O)[C@@H]2CCCC[C@H]2c2nn(-c3cc(F)ccc3F)cc2-c2ccc(N3CCS(=O)(=O)CC3)cc2)CC1 [Example 114, (1R,2R)-N-(1-cyanocyclopropyl)-2-(1-(2,5-difluorophenyl)-4-(4-(1,1-dioxidothiomorpholino)phen-yl)-1H-pyrazol-3-yl)cyclohexanecarboxamide]",633,1.06
"C[C@@H](C#N)NC(=O)[C@@H]1CC(F)(F)CC[C@H]1c1nn(-c2ccc(F)cn2)c(CO)c1-c1ccc(N2CCS(=O)(=O)CC2)cc1 [Example 67, (1R,2R)-N-((S)-1-cyanoethyl)-2-(4-(4-(1,1-dioxidothiomorpholino)phen-yl)-1-(5-fluoropyridin-2-yl)-5-(hydroxymethyl)-1H-pyrazol-3-yl)-5,5-difluorocyclohexanecarbox-amide]",146,1.24
"Cc1c(-c2ccc(N3CCS(=O)(=O)CC3)cc2)c([C@@H]2CCC(F)(F)C[C@H]2C(=O)N[C@H](C#N)C(C)C)nn1-c1ccc(F)cn1 [Example 31, (1R,2R)-N-((S)-1-cyano-2-methylpropyl)-2-(4-(4-(1,1-dioxidothiomorpholino)phen-yl)-1-(5-fluoropyridin-2-yl)-5-methyl-1H-pyrazol-3-yl)-5,5-difluorocyclohexanecarbox-amide]",115,1.63
"N#CC(CC(F)(F)F)NC(=O)[C@@H]1CC(F)(F)CC[C@H]1c1nn2ccccc2c1-c1ccc(N2CCS(=O)(=O)CC2)cc1 (single isomer, unassigned) [Example 75, (1R,2R)-N-((R or S)-1-cyano-3,3,3-trifluoropropyl)-2-(3-(4-(1,1-dioxidothiomorpholino)phen-yl)pyrazolo[1,5-a]pyridin-2-yl)-5,5-difluorocyclohexanecarbox-amide]",21,0.99
"COc1ccc(-n2cc(-c3ccc(N4CCS(=O)(=O)CC4)cc3)c([C@@H]3CCCC[C@H]3C(=O)NC3(C#N)CC3)n2)cc1 [Example 87, (1R,2R)-N-(1-cyanocyclopropyl)-2-(4-(4-(1,1-dioxidothiomorpholino)phen-yl)-1-(4-methoxyphenyl)-1H-pyrazol-3-yl)cyclohexanecarboxamide]",740,0.99
"N#CC1(NC(=O)[C@@H]2CCC(F)(F)C[C@H]2c2nn(-c3ccc(F)cn3)cc2-c2ccc(N3CCS(=N)(=O)CC3)cc2)CC1 [Example 20, (1R,2R)-N-(1-cyanocyclopropyl)-4,4-difluoro-2-(1-(5-fluoropyridin-2-yl)-4-(4-(1-imino-1-oxidothiomorpholino)phenyl)-1H-pyrazol-3-yl)cyclohexanecarboxamide]",1820,6.81
"N#CC1(NC(=O)[C@@H]2CCCC[C@H]2c2nn(-c3ccc(F)cn3)cc2-c2ccc(N3CCS(=O)(=O)CC3)cc2)CC1 [Example 145, (1R,2R)-N-(1-cyanocyclopropyl)-2-(4-(4-(1,1-dioxidothiomorpholino)phen-yl)-1-(5-fluoropyridin-2-yl)-1H-pyrazol-3-yl)cyclohexanecarboxamide]",481,1.24
"N#CC1(NC(=O)[C@@H]2CCCC[C@H]2c2nn(-c3ccc(F)cc3)cc2-c2ccc(C(=O)N3CCOCC3)cc2)CC1 [Example 88, (1R,2R)-N-(1-cyanocyclopropyl)-2-(1-(4-fluorophenyl)-4-(4-(morpholine-4-carbonyl)phenyl)-1H-pyrazol-3-yl)cyclohexanecarboxamide]",1010,6.9
"CN=S1(=O)CCN(c2ccc(-c3c([C@@H]4CCCC[C@H]4C(=O)N[C@@H](C)C#N)nn(-c4ncccc4F)c3C)cc2)CC1 [Example 47, (1R,2R)-N-((S)-1-cyanoethyl)-2-(1-(3-fluoropyridin-2-yl)-5-methyl-4-(4-(1-(methylimino)-1-oxidothiomorpholino)phenyl)-1H-pyrazol-3-yl)cyclohexanecarboxamide]",3240,5.48
"N#CC1(NC(=O)[C@@H]2CCCC[C@H]2c2nn(-c3ccc(Cl)cn3)cc2-c2ccc(N3CCS(=O)(=O)CC3)cc2)CC1 [Example 146, (1R,2R)-2-(1-(5-chloropyridin-2-yl)-4-(4-(1,1-dioxidothiomorpholino)phen-yl)-1H-pyrazol-3-yl)-N-(1-cyanocyclopropyl)cyclohex-anecarboxamide]",272,1.15
"N#CC1(NC(=O)[C@H]2CC(F)(F)CC[C@@H]2c2nn(-c3ccc(F)cc3)cc2-c2ccc(N3CCS(=O)(=O)CC3)cc2)CC1 [Example 84, (1S,2S)-N-(1-cyanocyclopropyl)-2-(4-(4-(1,1-dioxidothiomorpholino)phen-yl)-1-(4-fluorophenyl)-1H-pyrazol-3-yl)-5,5-difluorocyclohexanecarbox-amide]",1050,51.6
"N#CC1(NC(=O)[C@@H]2CCCC[C@H]2c2nn(-c3ncc(F)cc3F)cc2-c2ccc(N3CCS(=O)(=O)CC3)cc2)CC1 [Example 148, (1R,2R)-N-(1-cyanocyclopropyl)-2-(1-(3,5-difluoropyridin-2-yl)-4-(4-(1,1-dioxidothiomorpholino)phen-yl)-1H-pyrazol-3-yl)cyclohexanecarboxamide]",502,1.01
"N#CC1(NC(=O)[C@@H]2CCCC[C@H]2c2nn(-c3ccc(F)cc3)cc2-c2ccc(N3CCS(=O)(=NCC(F)(F)F)CC3)cc2)CC1 [Example 141, (1R,2R)-N-(1-cyanocyclopropyl)-2-(1-(4-fluorophenyl)-4-(4-(1-oxido-1-((2,2,2-trifluoroethyl)imino)thio-morpholino)phenyl)-1H-pyrazol-3-yl)cyclohexanecarboxamide]",816,2.1
